Source: US20250057928A1, “VACCINE COMPOSITION FOR INDUCING ANTI-IL-23 ANTIBODY” (OSAKA UNIVERSITY, priority 2021, published 2025)
Where no end group is shown, it is not given here.

How the values were obtained:
[1] = system: recombinant human IL-23 protein (rhIL-23); test: Binding of mouse antiserum to rhIL-23, ELISA; details: antiserum of BALB/c mice, 1 mg/body 3 times, no adjuvant; 6 weeks
Procedure: AJP001 conjugated peptide (SEQ ID NOs: 6-37) was dissolved in physiological saline, mixed with an equal amount of 2% Alhydrogel (invivogen), and this was intradermally administered to BALB/c mice (female, 6-week-old, N=5-6) at 0.5 mg/body 3 times at two-week intervals. Blood was collected before administration and at the time point of 6 weeks after initial administration, and the antibody titer (GMT) to each epitope sequence and binding ability to recombinant human IL-23 protein (rhIL-23) (Peprotech) were measured by the ELISA method (same method as in Example 1). The binding to rhIL-23 was evaluated by a binding ratio to normal serum by calculating the ratio of the absorbance of a well added with normal mouse serum to the absorbance of a well added with antiserum derived from a mouse administered with each AJP001 conjugated peptide (SEQ ID NOs: 6-37). In addition, the neutralization activity of mouse antiserum was evaluated using an action on IL-17 production in rhIL-23 stimulated mouse splenocyte as an index. The spleen of normal BALB/c mouse (female, 5-week-old, N=3) was triturated using a syringe barrel and a cell strainer and washed with and suspended in HBSS (−). Erythrocytes were then removed using ACK Buffer (Thermo fisher scientific), and splenocytes were isolated. The splenocytes were prepared to 2.5×10^6 cells/mL with 10% FBS/1% penicillin/streptomycin/4 ng/mL rmIL-2-containing RPMI1640 medium (culture medium), and seeded in a 96 well plate at 100 μl/well. The antiserum (final concentration 15-fold) of the mice administered with each AJP001 conjugated peptide and rhIL-23 (final concentration 10 ng/ml) were added to the culture medium, reacted at 37° C. for 2 hr, added at 100 μL/well to a 96-well plate seeded with splenocytes, and cultured for 3 days in a 37° C./5% CO2 incubator. An untreated well and a control well to which normal mouse serum and rhIL-23 were added were provided. IL-17A/F in the culture supernatant was measured using Mouse IL-17A/F ELISA kit (R&D systems), the proportion (%) of IL-17 to normal serum was calculated from the IL-17 concentrations of untreated well (A), control well (B), and well (C) to which antiserum of the mice administered with each AJP001 conjugated peptide was added and according to the following formula, and the neutralization activity was evaluated.
AJP001 conjugated peptide (SEQ ID NO: 6) was dissolved in physiological saline and intradermally administered to BALB/c mice (female, 6-week-old, N=6) at 1 mg/body 3 times at two-week intervals, and blood was collected every 2 weeks until 8 weeks. The antibody titer (GMT) of all the collected sera and the binding ability to rhIL-23 of the serum at 6 weeks were measured by the ELISA method. In FIG. 5, “*” means P<0.05.

BALB/c mouse = test: TNBS-induced mouse colitis model; format: in vivo
Procedure: AJP001 conjugated peptide (SEQ ID NO: 2) was dissolved in physiological saline, mixed with an equal amount of 1 mg/mL Type-B/K CpG-ODN K3 (GeneDesign, Inc., hereinafter sometimes to be referred to as “CpG”), and subcutaneously administered to BALB/c mouse (female, 6-week-old, N=10) at 1 mg/body 3 times at two-week intervals. At the time point of 6 weeks after the initial administration, TNBS dissolved in 30% ethanol was administered by intestinal infusion at 2 mg/body. With the first administration of TNBS as Day 0, TNBS was administered by intestinal infusion at 3 mg/body on Day 7 to induce colitis. A Normal group and a 30% EtOH group, each without administration of TNBS, a Saline/TNBS group with administration of TNBS but without administration of the peptide, and a CpG/INBS group with administration of only an adjuvant were provided. Body weight was measured on Days 1, 2, 3, 4, 7, 8, 9, and 10, including the day of TNBS administration. After euthanasia by cardiac blood collection under deep anesthesia on Day 10, the obtained serum was measured for the antibody titer (GMT) and binding to mIL-23 by the ELISA method (same method as in Example 1). In addition, large intestinal tissue was collected, the length (cm) of the large intestine was measured, a 2 cm region from the anus was subjected to the measurement of cytokine mRNA expression, and a 2 to 4 cm region was subjected to histopathological examination. As to the expression of cytokine mRNA, the region was bead disrupted under ice-cooling, total RNA was extracted using RNeasy Fibrous Tissue Kit (Qiagen), and then cDNA of the extracted RNA was prepared using High-Capacity cDNA Reverse Transcription Kit ([…]). Using TaqMan Gene Expression Assays (GAPDH: Mm99999915_g1; IL-17A: Mm00439618_m1; IL-17F:Mm00521423_m1; IL-22:Mm01226722_m1; IL-23:Mm00518984_m1; IL-1β:Mm00434228_m1), Ct value was measured using Applied Biosystems 7900HT Fast Real Time PCR System. The mRNA expression level was calculated by the ΔΔCt method and evaluated as a relative value to the normal group. For histopathological examination, the collected large intestine was fixed with 10% neutral formalin, and then a specimen was prepared according to a conventional method and stained with HE. The HE-stained specimen was observed under a microscope, scored for inflammatory cell infiltration (Grade: 0-3), depth of colorectal tissue damage (Grade: 0-3), and range of colorectal mucosal damage (Grade: 0-4), and the total score was calculated.

binding ability to rhIL-23 [1] | Substance | shortened large intestine length (BALB/c mouse; 1 mg/body with CpG 3 times, Day 10) | inflammatory changes in large intestine tissues (BALB/c mouse; 1 mg/body with CpG 3 times, Day 10, HE) | mRNA expression of IL-17A, IL-22, and IL-1β in tissues (BALB/c mouse; 1 mg/body with CpG 3 times, Day 10, large intestinal tissue) | body weight loss (BALB/c mouse; BALB/c mice, 1 mg/body subcutaneous with CpG-ODN K3, 3 times, TNBS Day 0 and Day 7, vs Saline/TNBS or CpG/TNBS)
confirmed | SEQ ID NO 6: AJP001-Ahx-B cell epitope peptide conjugate; epitope SPSQPWQR (human 151-158) (not fully specified (N-terminus); listed as Homo sapiens) |  |  |  | 
 | SEQ ID NO 2: AJP001-Ahx-B cell epitope peptide conjugate; epitope SSSQQWQR (mouse 152-159) (not fully specified (N-terminus); listed as Mus musculus) | suppressive action | suppressive action | suppressive action | suppressive action
